The text below walks through data of ChEMBL document CHEMBL3046141, “Partition coefficient determination of a series of isoindolines-2-substituted and its correlation with their antiproliferative activity on HeLa cells” (Med Chem Res, 2013).

As usually defined, the IC50 is the midpoint of a concentration-inhibition curve. What is called logP is the decadic logarithm of the partition coefficient of the neutral form, usually between octanol and water. Higher therefore signals a more lipophilic compound.

The subject of data set [1] is HeLa. The data set can be described thus: Cytotoxicity against Homo sapiens (human) HeLa cells assessed as metabolic active cells after 24 hr by MTT assay. Type of data set: functional, cell-based. (In general: Formazan colour is commonly taken as a measure of viable cells.)
The nature of data set [2]: n-octanol-water partition coefficient, log P of the compound by shake-flask method. Type of data set: physicochemical.
Data set [3] concerns HeLa. Description: Cytotoxicity against Homo sapiens (human) HeLa cells assessed as cell viability after 24 hr by crystal violet staining. The format is functional, cell-based.

As to `COC(=O)CN1Cc2ccccc2C1`, the IC50 in data set [1] came to 8.23 mM; in data set [3], 3.65 mM. For the same compound, the logP in data set [2] is -0.027.

On to `COC(=O)[C@H](CC(C)C)N1Cc2ccccc2C1`, for which the IC50 in data set [1] was determined as 2.56 mM; in data set [3], 3.16 mM. In data set [2], this compound showed a logP of 0.065.

Regarding `COC(=O)[C@H](c1ccccc1)N1Cc2ccccc2C1`, the IC50 was determined as 8.25 mM in data set [1] and 5.32 mM in data set [3]. In addition, the logP in data set [2] is 1.35.

As to `COC(=O)[C@H](Cc1c[nH]c2ccccc12)N1Cc2ccccc2C1`, the figures for the IC50 in data set [1] and in data set [3] were 9.71 mM and 8.44 mM, respectively. Further, the logP in data set [2] worked out at 1.45.

As for `O=C(O)CN1Cc2ccccc2C1`, the IC50 in data set [1] worked out at 8.74 mM; in data set [3] it was 5.62 mM. The same compound registered a logP in data set [2] of -0.229.

Take `CC(C)C[C@@H](C(=O)O)N1Cc2ccccc2C1`: the figures for the IC50 in data set [1] and in data set [3] were 4.56 mM and 4.3 mM, respectively. The logP in data set [2] is 0.114.

As for `O=C(O)[C@H](c1ccccc1)N1Cc2ccccc2C1`, the 50% inhibitory concentration (IC50) was determined as 9.48 mM in data set [1] and 7.07 mM in data set [3]. This compound also registered a logP in data set [2] of -0.31.

As for `O=C(O)[C@H](Cc1c[nH]c2ccccc12)N1Cc2ccccc2C1`, the 50% inhibitory concentration (IC50) in data set [1] was found to be 7.6 mM; in data set [3], 8.82 mM. In data set [2], this compound had a logP of 0.347.
